Data published in US10538487B2, “Sulfonylureas and related compounds and use of same” (priority 2015, dated 2020).
pIC50: −log10 of the molar value. Where two headings read alike, the source gives them in different places.

Legend:
[1] = target: NLRP3 inflammasome (Mus musculus, UniProt Q8R4B8); experiment: Inhibition of IL-1β release, NLRP3 inflammasome activation assay in BMDM; type: cell-based
Experimental: The following assays can be used to determine inhibitory activity of test compounds on the NLRP3 inflammasome using common stimuli such as adenosine triphosphate, nigericin, LeuLeu-OMe or monosodium urate crystals (MSU).
Mouse bone marrow-derived macrophages (BMDM) were derived from bone marrow progenitors isolated from the femurs and tibias of C57BL/6 mice.
BMDM are seeded at 1×10^5/ml. The following day the overnight medium is replaced and cells are stimulated with Ultrapure lipopolysaccharide from Escherichia coli K12 strain (InvivoGen) for 3 h. Medium is removed and replaced with serum free medium (SFM) containing test compound 30 min prior to NLRP3 stimulation. […] ATP can be sourced from Sigma Aldrich, nigericin and MSU from Invivogen and LeuLeu-Ome from Chem-Impex International.
For ELISA and cell death assays cells are seeded in 96 well plates. Supernatants are removed and analysed using ELISA kits according to the manufacturer's instructions (DuoSet® R&D Systems, ReadySetGo!® eBioscience, BD OptEIA™, or Perkin Elmer AlphaLISA®). Cell death is assessed by measurement of LDH release relative to a 100% cell lysis control using the CytoTox96® non-radioactive cytotoxicity assay (Promega).

[2] = target: NLRP3 inflammasome (Homo sapiens, UniProt Q96P20); experiment: Inhibition of IL-1β release, NLRP3 inflammasome activation assay in HMDM; type: cell-based
How it was run: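 Primary human monocyte-derived macrophages from CD14+ buffy-coat monocytes, seeded at 1×10^5/ml. Compound added in serum-free medium 30 min before NLRP3 stimulation (ATP, nigericin, LeuLeu-OMe or MSU). Cytokine in supernatants measured by ELISA or AlphaLISA; cell death by LDH release relative to full lysis.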

[3] = inhibition of IL-1β release, class symbols, read-out: Avg. IL-1β IC50 Murine BMDM
[4] = inhibition of IL-1β release, class symbols, read-out: Avg. IL-1β IC50 HMDM
[5] = commercial compounds (Table 9), read-out: BMDM IC50 vs NLRP3
[6] = commercial compounds (Table 9), read-out: HMDM IC50 vs NLRP3
[7] = inhibition of IL-1β release, numeric bounds, read-out: Avg. IL-1β IC50 Murine BMDM
[8] = select compounds of the first aspect (Table 10), read-out: BMDM IC50 vs NLRP3
[9] = select compounds of the first aspect (Table 10), read-out: HMDM IC50 vs NLRP3

NLRP3 inflammasome (Mus musculus, UniProt Q8R4B8), sequence (Q8R4B8 whole entry): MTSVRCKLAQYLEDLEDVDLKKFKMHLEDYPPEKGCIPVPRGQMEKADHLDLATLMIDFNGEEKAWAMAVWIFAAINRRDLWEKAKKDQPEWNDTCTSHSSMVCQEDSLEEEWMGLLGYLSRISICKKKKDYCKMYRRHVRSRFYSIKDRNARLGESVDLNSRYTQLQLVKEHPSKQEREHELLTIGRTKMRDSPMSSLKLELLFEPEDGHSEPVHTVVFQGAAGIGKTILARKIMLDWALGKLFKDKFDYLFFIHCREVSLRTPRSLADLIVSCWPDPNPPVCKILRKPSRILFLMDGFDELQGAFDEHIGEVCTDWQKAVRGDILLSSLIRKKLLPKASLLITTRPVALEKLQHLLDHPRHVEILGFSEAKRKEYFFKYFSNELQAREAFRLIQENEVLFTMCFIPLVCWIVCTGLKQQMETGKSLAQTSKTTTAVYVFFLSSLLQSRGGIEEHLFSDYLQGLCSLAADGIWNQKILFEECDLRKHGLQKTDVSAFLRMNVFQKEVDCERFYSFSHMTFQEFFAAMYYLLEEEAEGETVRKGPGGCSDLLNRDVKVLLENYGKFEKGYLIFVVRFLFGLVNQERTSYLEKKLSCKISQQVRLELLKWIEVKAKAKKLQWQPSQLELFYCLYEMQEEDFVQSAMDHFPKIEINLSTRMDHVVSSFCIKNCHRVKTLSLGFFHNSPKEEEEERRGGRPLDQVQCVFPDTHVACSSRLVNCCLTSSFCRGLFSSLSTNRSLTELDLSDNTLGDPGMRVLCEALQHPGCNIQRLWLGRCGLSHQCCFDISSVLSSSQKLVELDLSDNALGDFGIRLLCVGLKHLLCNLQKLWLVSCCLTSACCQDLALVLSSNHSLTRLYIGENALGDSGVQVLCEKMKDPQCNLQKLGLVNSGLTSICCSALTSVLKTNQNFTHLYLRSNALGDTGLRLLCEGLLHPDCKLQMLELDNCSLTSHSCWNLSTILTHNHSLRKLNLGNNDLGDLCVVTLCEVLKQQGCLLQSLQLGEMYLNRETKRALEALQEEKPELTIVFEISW
NLRP3 inflammasome (Homo sapiens, UniProt Q96P20), sequence (Q96P20 whole entry): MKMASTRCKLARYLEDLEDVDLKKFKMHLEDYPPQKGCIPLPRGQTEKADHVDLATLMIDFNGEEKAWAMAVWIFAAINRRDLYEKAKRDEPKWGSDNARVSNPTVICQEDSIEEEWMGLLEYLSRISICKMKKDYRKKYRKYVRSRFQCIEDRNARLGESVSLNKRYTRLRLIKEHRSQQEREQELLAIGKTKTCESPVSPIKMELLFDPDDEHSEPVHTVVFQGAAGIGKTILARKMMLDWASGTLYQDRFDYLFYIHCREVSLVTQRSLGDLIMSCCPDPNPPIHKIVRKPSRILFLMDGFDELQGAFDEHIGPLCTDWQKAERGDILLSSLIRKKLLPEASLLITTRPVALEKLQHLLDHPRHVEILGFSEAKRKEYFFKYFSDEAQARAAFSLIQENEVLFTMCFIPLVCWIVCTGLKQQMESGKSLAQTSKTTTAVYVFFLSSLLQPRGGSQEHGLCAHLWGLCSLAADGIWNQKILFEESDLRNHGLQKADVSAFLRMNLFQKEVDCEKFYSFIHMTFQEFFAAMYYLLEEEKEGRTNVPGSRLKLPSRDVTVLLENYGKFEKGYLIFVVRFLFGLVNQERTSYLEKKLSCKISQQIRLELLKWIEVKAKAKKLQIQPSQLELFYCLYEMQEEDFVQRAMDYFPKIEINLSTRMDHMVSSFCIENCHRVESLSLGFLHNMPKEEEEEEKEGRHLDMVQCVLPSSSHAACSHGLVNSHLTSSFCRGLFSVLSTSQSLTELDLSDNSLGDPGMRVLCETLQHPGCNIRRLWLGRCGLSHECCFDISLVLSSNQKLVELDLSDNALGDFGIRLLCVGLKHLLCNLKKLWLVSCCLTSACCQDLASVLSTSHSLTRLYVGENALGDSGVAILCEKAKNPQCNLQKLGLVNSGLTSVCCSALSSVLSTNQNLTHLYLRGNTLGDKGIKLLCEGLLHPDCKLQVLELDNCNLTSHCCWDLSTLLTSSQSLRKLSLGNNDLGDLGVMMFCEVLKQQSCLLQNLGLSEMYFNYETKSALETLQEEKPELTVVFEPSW

Compound | pIC50 [1, 3] | pIC50 [2, 4] | further results
CC(C)(O)c1coc(S(=O)(=O)NC(=O)Nc2c3c(c(Cl)c4c2CCC4)CCC3)c1 [N-((8-chloro-1,2,3,5,6,7-hexahydro-s-indacen-4-yl)carbamoyl)-4-(2-hydroxypropan-2-yl)furan-2-sulfonamide] | > 7.00 | > 7.00 | –
CC(=O)c1ccc(S(=O)(=O)NC(=O)NC2CCCCC2)cc1 [Acetohexamide, reference compound] | – | – | pIC50 [1, 5]: < 3.70; pIC50 [2, 6]: < 3.70
Cc1cc(Cl)cc(C)c1NC(=O)NS(=O)(=O)c1ccn(C(C)C)n1 [N-((4-chloro-2,6-dimethylphenyl)carbamoyl)-1-isopropyl-1H-pyrazole-3-sulfonamide] | – | > 5.00 | pIC50 [1, 7]: < 5.00
CC(C)c1cc(Cl)cc(C(C)C)c1NC(=O)NS(=O)(=O)c1cc2ccccc2s1 [N-((4-chloro-2,6-diisopropylphenyl)carbamoyl)benzo[b]thiophene-2-sulfonamide] | > 6.00 | > 7.00 | –
O=C(Nc1ccc2ncccc2c1)NS(=O)(=O)c1cccc(C2(C(F)(F)F)N=N2)c1 [N-(quinolin-6-ylcarbamoyl)-3-(3-(trifluoromethyl)-3H-diazirin-3-yl)benzenesulfonamide] | – | – | IC50 ([1]; inhibition of IL-1β release, uM, read-out: Avg. IL-1β IC50 Murine BMDM): > 50 µM; IC50 ([2]; inhibition of IL-1β release, uM, read-out: Avg. IL-1β IC50 HMDM): > 50 µM
COc1ccc2c(c1)C(=O)N(CCc1ccc(S(N)(=O)=O)cc1)C(=O)C2(C)C [4-(2-(7-methoxy-4,4-dimethyl-1,3-dioxo-3,4-dihydroisoquinolin-2(1H)-yl)ethyl)benzenesulfonamide, reference compound] | – | – | pIC50 [1, 7]: < 5.00; pIC50 ([2]; inhibition of IL-1β release, numeric bounds, read-out: Avg. IL-1β IC50 HMDM): < 3.70
Cc1cnc(C(=O)NCCc2ccc(S(=O)(=O)NC(=O)NC3CCCCC3)cc2)cn1 [Glipizide, reference compound] | – | – | pIC50 [1, 5]: < 3.70; pIC50 [2, 6]: < 3.70
Cc1c2c(c(NC(=O)NS(=O)(=O)c3cc(C(C)(C)O)co3)c3c1CCC3)CCC2 [4-(2-hydroxypropan-2-yl)-N-((8-methyl-1,2,3,5,6,7-hexahydro-s-indacen-4-yl)carbamoyl)furan-2-sulfonamide] | > 7.00 | > 7.00 | –
O=C(CCCC[C@@H]1SC[C@@H]2NC(=O)N[C@@H]21)NCCCn1cc(CCC(=O)Nc2cccc(S(=O)(=O)NC(=O)Nc3c4c(cc5c3CCC5)CCC4)c2)nn1 [N-(3-(4-(3-((3-(N-((1,2,3,5,6,7-hexahydro-s-indacen-4-yl)carbamoyl)sulfamoyl)phenyl)amino)-3-oxopropyl)-1H-1,2,3-triazol-1-yl)propyl)-5-((3aS,4S,6aR)-2-oxohexahydro-1H-thieno[3,4-d]imidazol-4-yl)pentanamide] | > 5.00 | > 5.00 | –
O=C(Nc1ccc(Cl)cc1)NS(=O)(=O)c1ccc2c(c1)CCC2 [Sulofenur, reference compound] | – | – | pIC50 [1, 5]: < 5.00; pIC50 [2, 6]: < 4.00
CC(=O)c1ccc(S(=O)(=O)NC(=O)Nc2c3c(cc4c2CCC4)CCC3)cc1 [4-Acetyl-N-((1,2,3,5,6,7-hexahydro-s-indacen-4-yl)carbamoyl)benzenesulfonamide] | > 7.00 | > 6.00 | –
CCCCNC(=O)NS(=O)(=O)c1ccc(C)cc1 [Tolbutamide, reference compound] | – | – | pIC50 [1, 5]: < 3.70; pIC50 [2, 6]: < 3.70
COc1ccc(Cl)cc1C(=O)NCCc1ccc(S(=O)(=O)NC(=O)Nc2c3c(cc4c2CCC4)CCC3)cc1 | > 6.00 | > 6.00 | –
Cc1cc(C(=O)NCCc2ccc(S(=O)(=O)NC(=O)Nc3c4c(cc5c3CCC5)CCC4)cc2)no1 [N-(4-(N-((1,2,3,5,6,7-hexahydro-s-indacen-4-yl)carbamoyl)sulfamoyl)phenethyl)-5-methylisoxazole-3-carboxamide] | > 6.00 | > 6.00 | –
CC(=O)c1ccc(S(=O)(=O)NC(=O)Nc2c3c(cc4c2CCC4)CCC3)cc1 [drawing 363] | – | – | pIC50 [1, 8]: 7.44; pIC50 [2, 9]: 6.51
CC(C)(O)c1coc(S(=O)(=O)NC(=O)Nc2cc(C(F)(F)F)ccc2C(F)(F)F)c1 [N-((2,5-bis(trifluoromethyl)phenyl)carbamoyl)-4-(2-hydroxypropan-2-yl)furan-2-sulfonamide] | > 6.00 | > 5.00 | –
COc1ccc2c(c1)C(=O)N(CCc1ccc(S(=O)(=O)NC(=O)Nc3c4c(cc5c3CCC5)CCC4)cc1)C(=O)C2(C)C [N-((1,2,3,5,6,7-hexahydro-s-indacen-4-yl)carbamoyl)-4-(2-(7-methoxy-4,4-dimethyl-1,3-dioxo-3,4-dihydroisoquinolin-2(1H)-yl)ethyl)benzenesulfonamide] | > 6.00 | > 5.00 | –

Compound | pIC50 [1, 3] | pIC50 [2, 4] | further results
COc1cc(Cl)cc(OC)c1NC(=O)NS(=O)(=O)c1ccn(C(C)C)n1 [N-((4-chloro-2,6-dimethoxyphenyl)carbamoyl)-1-isopropyl-1H-pyrazole-3-sulfonamide] | – | > 4.30 | pIC50 [1, 7]: < 5.00
CC(C)n1cc(S(=O)(=O)NC(=O)Nc2c3c(cc4c2CCC4)CCC3)nn1 [N-((1,2,3,5,6,7-hexahydro-s-indacen-4-yl)carbamoyl)-1-isopropyl-1H-1,2,3-triazole-4-sulfonamide] | > 6.00 | > 7.00 | –
Nc1ccc(S(=O)(=O)NC(=O)Nc2c3c(cc4c2CCC4)CCC3)cc1 [4-Amino-N-((1,2,3,5,6,7-hexahydro-s-indacen-4-yl)carbamoyl)benzenesulfonamide] | > 7.00 | > 6.00 | –
Cc1cc(Cl)cc(C(F)(F)F)c1NC(=O)NS(=O)(=O)c1ccn(C(C)C)n1 [N-((4-chloro-2-methyl-6-(trifluoromethyl)phenyl)carbamoyl)-1-isopropyl-1H-pyrazole-3-sulfonamide] | – | > 5.00 | pIC50 [1, 7]: < 5.00
NS(=O)(=O)c1cccc(S(=O)(=O)NC(=O)Nc2c3c(cc4c2CCC4)CCC3)c1 [N^1-(1,2,3,5,6,7-Hexahydros-indacen-4-ylcarbamoyl)benzene-1,3-disulfonamide] | > 7.00 | > 7.00 | –
CC(C)(O)c1coc(S(=O)(=O)NC(=O)Nc2ccc(C(F)(F)F)cc2C(F)(F)F)c1 [N-((2,4-bis(trifluoromethyl)phenyl)carbamoyl)-4-(2-hydroxypropan-2-yl)furan-2-sulfonamide] | > 6.00 | > 5.00 | –
COc1ccc2c(c1)C(=O)N(CCc1ccc(S(N)(=O)=O)cc1)C(=O)C2(C)C [Gliquidone precursor, 4-(2-(7-Methoxy-4,4-dimethyl-1,3-dioxo-3,4-dihydroisoquinolin-2(1H)-yl)ethyl)benzenesulfonamide, reference compound] | – | – | pIC50 [1, 5]: < 5.00; pIC50 [2, 6]: < 3.70
O=C(Nc1c2c(cc3c1CCC3)CCC2)NS(=O)(=O)c1cccc(C(F)(F)F)c1 [N-((1,2,3,5,6,7-hexahydro-s-indacen-4-yl)carbamoyl)-3-(trifluoromethyl)benzenesulfonamide] | > 6.00 | > 7.00 | –
O=C(Nc1c2c(cc3c1CCC3)CCC2)NS(=O)(=O)c1ccc(CCNc2ccc([N+](=O)[O-])c3nonc23)cc1 [N-((1,2,3,5,6,7-hexahydro-s-indacen-4-yl)carbamoyl)-4-(2-((7-nitrobenzo[c][1,2,5]oxadiazol-4-yl)amino)ethyl)benzenesulfonamide] | > 6.00 | > 6.00 | –
O=C(Nc1c2c(cc3c1CCC3)CCC2)NS(=O)(=O)c1ccc2c(c1)CCC2 [drawing 367] | – | – | pIC50 [1, 8]: 7.30; pIC50 [2, 9]: 5.84
CC(C)n1ccc(S(=O)(=O)NC(=O)Nc2c(C3CC3)cc(Cl)cc2C2CC2)n1 [N-((4-chloro-2,6-dicyclopropylphenyl)carbamoyl)-1-isopropyl-1H-pyrazole-3-sulfonamide] | > 6.00 | > 6.00 | –
Cc1cc(C(=O)NCCc2ccc(S(=O)(=O)NC(=O)Nc3c4c(cc5c3CCC5)CCC4)cc2)no1 [drawing 362] | – | – | pIC50 [1, 8]: 6.55; pIC50 [2, 9]: 6.72
Cc1ccc(S(=O)(=O)NC(=O)NN2CC3CCCC3C2)cc1 (stereo not drawn) [Gliclazide, reference compound] | – | – | pIC50 [1, 5]: < 3.70; pIC50 [2, 6]: < 3.70
C=C(C)c1coc(S(=O)(=O)NC(=O)Nc2c3c(cc4c2CCC4)CCC3)c1 [N-((1,2,3,5,6,7-hexahydro-s-indacen-4-yl)carbamoyl)-4-(prop-1-en-2-yl)furan-2-sulfonamide] | > 6.00 | > 6.00 | –
COc1ccc(Cl)cc1C(=O)NCCc1ccc(S(=O)(=O)NC(=O)Nc2c3c(cc4c2CCC4)CCC3)cc1 [drawing 358] | – | – | pIC50 [1, 8]: 6.62; pIC50 [2, 9]: 6.85
CCc1cc(Cl)cc(CC)c1NC(=O)NS(=O)(=O)c1ccn(C(C)C)n1 [N-((4-chloro-2,6-diethylphenyl)carbamoyl)-1-isopropyl-1H-pyrazole-3-sulfonamide] | > 5.00 | > 5.00 | –
